Laboratory results reported in ChEMBL document CHEMBL4425173, “Synthesis, biological evaluation and molecular modeling studies of psammaplin A and its analogs as potent histone deacetylases inhibitors and cytotoxic agents” (Bioorg Med Chem Lett, 2016).
Activity calls are given as the source filed them. The calls are words filed in the database; no cut-off is given here.

Experiments:
Histone deacetylase = assay: Inhibition of HDAC in human HeLa cells using Fluor deLys as substrate assessed as deacetylation of substrate by fluorescence assay; format: cell-based
HL-60 = assay: Cytotoxicity against human HL60 cells assessed as reduction in cell growth inhibition after 72 hrs by trypan blue-staining based hemocytometric analysis; format: functional; conditions: HL-60, 72 h
A549 = assay: Cytotoxicity against human A549 cells assessed as reduction in cell growth inhibition after 96 hrs by MTT assay; format: functional; conditions: A549, 96 h
PC-3 = assay: Cytotoxicity against human PC3 cells assessed as reduction in cell growth inhibition after 96 hrs by MTT assay; format: functional; conditions: PC-3, 96 h
MCF7 = assay: Cytotoxicity against human MCF7 cells assessed as reduction in cell growth inhibition after 96 hrs by MTT assay; format: functional; conditions: MCF7, 96 h
[1] = target: Histone deacetylase (Homo sapiens) (UniProt Q13547+O15379+Q9UBN7+Q92769+Q9UQL6+Q8WUI4+Q9BY41+Q96DB2+P56524+Q9UKV0+Q969S8); assay: Inhibition of HDAC in human HL60 cells assessed as upregulation of H3 acetylation levels at 2 uM after 18 hrs by SDS-PAGE analysis; format: cell-based

IC50 (Histone deacetylase) | H3 acetylation upregulation (active/not active) [1] | SMILES | GI50 (HL-60) | GI50 (A549) | GI50 (PC-3) | GI50 (MCF7)
0.28 µM | – | O=C(NCCSSCCNC(=O)/C(Cc1ccc(Cl)cc1Cl)=N/O)/C(Cc1ccc(Cl)cc1Cl)=N/O | 0.87 µM | 6.79 µM | 4.61 µM | 4.98 µM
0.68 µM | – | O=C(NCCSSCCNC(=O)c1cc(-c2ccc(O)c(Br)c2)[nH]n1)c1cc(-c2ccc(O)c(Br)c2)[nH]n1 | 6.14 µM | – | 17.1 µM | –
0.04 µM | Active | COc1cc(C/C(=N\O)C(=O)NCCSSCCNC(=O)/C(Cc2ccc(O)c(OC)c2)=N/O)ccc1O | 0.28 µM | 4.84 µM | 3.41 µM | 2.47 µM
0.13 µM | Active | O=C(NCCSSCCNC(=O)/C(Cc1ccc2c(c1)OCO2)=N/O)/C(Cc1ccc2c(c1)OCO2)=N/O | 0.67 µM | 4.78 µM | 2.4 µM | 3.77 µM
0.12 µM | – | O=C(NCCSSCCNC(=O)/C(Cc1ccc(O)cc1)=N/O)/C(Cc1ccc(O)cc1)=N/O | 0.62 µM | 6.54 µM | 5.33 µM | 4.62 µM
2.77 µM | – | COc1ccc(-c2cc(C(=O)NCCSSCCNC(=O)c3cc(-c4ccc(OC)cc4)[nH]n3)n[nH]2)cc1 | 6.45 µM | – | 26.6 µM | –
1.81 µM | – | O=C(NCCSSCCNC(=O)c1cc(-c2ccc(O)cc2)[nH]n1)c1cc(-c2ccc(O)cc2)[nH]n1 | 4.11 µM | – | 19.8 µM | –
8.59 µM | – | CO/N=C(\Cc1ccc(Cl)cc1Cl)C(=O)NCCSSCCNC(=O)/C(Cc1ccc(Cl)cc1Cl)=N/OC | 8.64 µM | 47.1 µM | > 50 µM | 16.5 µM
4.65 µM | – | COc1ccc(-c2cc(C(=O)NCCSSCCNC(=O)c3cc(-c4ccc(OC)c(Br)c4)on3)no2)cc1Br | 13.3 µM | – | 39 µM | –
0.21 µM | – | O=C(NCCSSCCNC(=O)/C(Cc1cccc(Cl)c1)=N/O)/C(Cc1cccc(Cl)c1)=N/O | 0.57 µM | 5.42 µM | 5.19 µM | 3.51 µM
0.26 µM | Active | Cc1ccc(C/C(=N\O)C(=O)NCCSSCCNC(=O)/C(Cc2ccc(C)cc2)=N/O)cc1 | 0.74 µM | 8.35 µM | 6.43 µM | 4.3 µM
3.14 µM | – | O=C(NCCSSCCNC(=O)c1cc(-c2ccc(O)cc2)on1)c1cc(-c2ccc(O)cc2)on1 | 11.6 µM | – | 31.7 µM | –
1.86 µM | – | COc1ccc(-c2cc(C(=O)NCCSSCCNC(=O)c3cc(-c4ccc(OC)c(Br)c4)[nH]n3)n[nH]2)cc1Br | 5.52 µM | – | 16.9 µM | –
0.27 µM | – | O=C(NCCSSCCNC(=O)/C(Cc1cccc(C(F)(F)F)c1)=N/O)/C(Cc1cccc(C(F)(F)F)c1)=N/O | 0.52 µM | 4.48 µM | 6.78 µM | 3.48 µM
0.21 µM | – | CC(C)c1ccc(C/C(=N\O)C(=O)NCCSSCCNC(=O)/C(Cc2ccc(C(C)C)cc2)=N/O)cc1 | 0.5 µM | 4.61 µM | 2.67 µM | 3.91 µM
0.03 µM | Active | COc1ccc(C/C(=N\O)C(=O)NCCSSCCNC(=O)/C(Cc2ccc(OC)c(O)c2)=N/O)cc1O | 0.23 µM | 4.74 µM | 3.27 µM | 2.7 µM
4.5 µM | – | CO/N=C(\Cc1cccc(Cl)c1)C(=O)NCCSSCCNC(=O)/C(Cc1cccc(Cl)c1)=N/OC | 6.55 µM | 32 µM | 23.1 µM | 14.3 µM
8.31 µM | – | COc1ccc(-c2cc(C(=O)NCCSSCCNC(=O)c3cc(-c4ccc(OC)cc4)on3)no2)cc1 | 18.3 µM | – | > 50 µM | –
3.15 µM | – | CO/N=C(\Cc1ccc(OC)cc1)C(=O)NCCSSCCNC(=O)/C(Cc1ccc(OC)cc1)=N/OC | 5.18 µM | 38.3 µM | 26.8 µM | 16.4 µM
0.05 µM | Active | O=C(NCCSSCCNC(=O)/C(Cc1ccc(O)c(Br)c1)=N/O)/C(Cc1ccc(O)c(Br)c1)=N/O [PSAMMAPLIN A] | 0.29 µM | 4.5 µM | 3.52 µM | 2.26 µM
0.12 µM | – | COc1ccc(C/C(=N\O)C(=O)NCCSSCCNC(=O)/C(Cc2ccc(OC)cc2)=N/O)cc1 | 0.78 µM | 6.85 µM | 5.5 µM | 2.68 µM
7.65 µM | inactive | CO/N=C(\Cc1ccc(C)cc1)C(=O)NCCSSCCNC(=O)/C(Cc1ccc(C)cc1)=N/OC | 11.9 µM | > 50 µM | > 50 µM | > 50 µM
